The results in this text go back to patent US6696081B2, “Carbohydrate based lipid compositions and supramolecular structures comprising same” (Duke University, priority 2000, dated 2004).

Where “and” joins values, the source holds several entries; their conditions need not be identical. Identical values can stand only once.

Type in all cases: physicochemical
The nature of data set [1]: Carboxyfluorescein leakage assay of carbohydrosomes. The settings on record: vesicles of 100% DMRPC (0% cholesterol). The text has this: The following procedure is adapted from Weinstein et al. (Weinstein, et al., Self-Quenching of Carboxyfluorescein Fluorescence: Uses in Studying Liposome Stability and Liposome-Cell Interaction; Weinstein, J. N.; et al., Ed.; CRC Press, Inc.: Boca Raton, Fla., United States of Amenica 1984; Vol. 3, pp 183-204.) and was successfully used in DMPC control experiments. Immediately before use, the carbohydrate-based lipid DMRPC, was passed through a C-18 SEP PAK™ column using a solvent system of 10% MeOH/CH3CN. Both the cholesterol and DMRPC were dissolved in chloroform and mixed. The mixtures were dried by rotoevaporation in a 100 mL round bottom flask before being thoroughly dried by high vacuum. […] The size of the liposomes was determined using dynamic light scattering. […] The filtered liposomes were diluted into osmotically equivalent 20 mM PBS buffer at pH 7.4 and the fluorescence intensity was measured over time. […]
As discussed herein above, one of the most wide-spread uses of liposomes is as drug delivery vehicles in warm-blooded vertebrates, including humans. […] In this Example, release of the self-quenching dye 5(6)-carboxyfluorescein (encapsulated in 5 mg/mL) was monitored over time by preparing carboxyfluorescein-containing carbohydrosomes using the high-pressure extrusion method. […]

The nature of data set [2]: Modulated differential scanning calorimetry (MDSC) of hydrated lipid bilayers. The method, then:
The phase-transition temperatures (Tm) of the bilayers formed by DLRPC, DMRPC and DARPC were determined by modulated differential scanning calorimetry (MDSC). […] For DARPC, the similarity in Tm was not entirely unexpected since tail—tail interactions contribute more to the Tm as the tail length increases. […] At the phase-transition temperature, the bilayer transformed from the gel-liquid crystalline phase in glycerol based phospholipids such as DLPC and DMPC. This endothermic process was observed as two discreet events. A small pre-transition peak, corresponding to the conversion from a lamellar gel (Lβ) phase to rippled gel (Pβ) phase, occurred below a much larger sharp main transition peak corresponding to conversion of the Pβ phase to the liquid crystalline Lα phase. The temperature at which the pre-transition existed as well as the enthalpy of the transition both changed as a function of tail length in a linear pattern. This presence of two well-defined phase transitions was not observed for the carbohydrate-based lipids.
Thermal Analysis of DLRPC 1-2 mgs of lipid were hermetically sealed with […] water in an aluminum pan. The modulation was set to ±1.00° C. every 40 seconds and the pan was equilibrated at −15° C. The temperature was increased at 0.5° C./min to 70° C. where the temperature was held for 2 minutes. The temperature was then reduced to −10° C. and held at this temperature for 2 minutes. This heating-cooling cycle was repeated two more times before the sample was held isothermal at −10° C. for 20 minutes. Integrating under the heat flow peak curve of the main peak provides the enthalpy of the transition. TA Instruments Universal Analysis computer program (available from TA Instruments of New Castle, Del., United States of America) was used to analyze the data. DLRPC has a Tm of 15.75° C. and an enthalpy of 3.3 kcal/mol.
The same modulated differential scanning calorimetry method used on DLRPC was employed to obtain thermotropic data on DMRPC.
The same modulated differential scanning calorimetry method used on DLRPC was employed to obtain thermotropic data on DARPC.

Data set [3] is described as follows: Cholesterol interactions: MDSC of lipid/cholesterol mixtures. As to the method:
The enthalpy was zero at 50 mol % cholesterol for DMRPC. For the glycerol-based phospholipid, cholesterol packed in the bilayer membrane with its hydroxyl group at the same level as the acyl groups. In this structural arrangement, cholesterol primarily interacted with the tails and not the head group or backbone.
For DMRPC, a slight decrease in phase-transition temperature was observed. The phase-transition temperature decreased from ˜30° C. at 0 mol % cholesterol to ˜27° C. at 35 mol % cholesterol. […] The carbohydrate backbone of DMRPC likely altered the effective hydrophobic length of the bilayer area (this DMRPC is similar to longer tail systems). There was a slight destabilization of the bilayer membrane with the incorporation of cholesterol as indicated by the decrease in phase-transition temperature. […] X-ray data on 20 mol % cholesterol/DMRPC confirmed the Lc state.

Take “methyl-2,3-di-O-myristoyl-b-D-ribo-5-phosphocholine [DMRPC]”: the “vesicle survival of SEPHADEX G-50 column separation” value in data set [1] is recorded as “too fragile to survive”. For the same substance, the “increase of Tm over the glycerol analog” value in data set [2] (DLRPC vs DLPC, DMRPC vs DMPC) was “approximately 6 °C”. Further, the enthalpy of transition in data set [2] (lipid hydrated in water, MDSC) was 6.1 ± 1.0 kcal/mol and 6.1 kcal/mol; in data set [3] (50 mol % cholesterol), “zero”. In data set [2] (lipid hydrated in water, MDSC), the “phase-transition temperature (Tm) of the bilayer” value was 29.6±0.3 °C and 29 °C and 29.6 °C. Besides, the phase-transition temperature was approximately 30 °C in data set [3] (0 mol % cholesterol) and approximately 27 °C in data set [3] (35 mol % cholesterol).
